Results on four compounds are retold here after publication PMC11477134 (International Journal of Molecular Sciences, 2024).

Where two headings read alike, the source gives them in different places. A value given as a limit tells only on which side of the number the result lay.

The target in one data set is Aβ1-42 (Homo sapiens, UniProt P05067). Briefly: Anti-Aβ1-42 aggregation (preliminary study). In kind it is biochemical. Conditions: compared with honokiol.
For the next data set, the target named is T1, hBACE1 (Homo sapiens, UniProt P56817).
T1 construct: purchased Invitrogen (Pan Vera, Madison, WI, USA)
Briefly: hBACE1 inhibitory activity (FRET assay) and enzyme kinetics. In kind it is biochemical. On the procedure: The FRET-based assay was used to evaluate the anti-hBACE1 activity and was performed according to the manufacturer’s instructions. […] The percentage BACE1 inhibitory activity was calculated using the following formula:Inhibition (%) = [1 − (S − S0)/(C − C0)] × 100(1) where C is the control fluorescence without the sample after 60 min of incubation, C0 is the control fluorescence at time 0, S is the test sample fluorescence after 60 min of incubation, and S0 is the test sample fluorescence at time 0.
(§1) Dixon plots were obtained in the presence of different concentrations of substrates for AD-related target enzymes. Michaelis–Menten and Lineweaver–Burk plots were constructed in the absence or presence of various concentrations of honokiol.

A further data set addresses T2, hQC (Homo sapiens, UniProt Q16769).
T2 construct: purchased R&D Systems (Minneapolis, MN, USA)
Nature of the data set: hQC inhibitory activity (fluorometric assay) and enzyme kinetics. It is filed as biochemical. On the procedure:
The inhibitory activity of hQC was evaluated using H-Gln-AMC hydrobromide (400 μM) as the substrate in a fluorometric assay. The buffer consisted of 25 mM HEPES (pH 7.0; adjusted with HCl). The hQC (10 μg/mL) and its auxiliary enzyme pGAPase (50 units) were pre-diluted 1:250 in HEPES. A typical reaction mixture consisted of the substrate, test compounds, and pGAPase. After incubation in black 96-well plates for 10 min at 37 °C, the reaction was initiated by adding hQC solution. The fluorescence intensity of the samples was measured at excitation/emission wavelengths of 380/460 nm, which correlated with the amount of AMC, the end product of the enzymatic process.
(§2) Dixon plots were obtained in the presence of different concentrations of substrates for AD-related target enzymes. Michaelis–Menten and Lineweaver–Burk plots were constructed in the absence or presence of various concentrations of honokiol. The Enzyme Kinetic™ module of SigmaPlot™ version 12.3 (Systat Software, Inc., San Jose, CA, USA) was used to calculate kinetic parameters, such as the Ki, Vmax, and Km.

Another data set has as its target T3, hGSK-3β (Homo sapiens, UniProt P49841).
T3 construct: purchased Promega (Madison, WI, USA)
Briefly: hGSK-3β activity (ADP-Glo/Kinase-Glo assay) and enzyme kinetics. It is filed as biochemical. On the procedure: Inhibition of hGSK-3β activity was evaluated using the Kinase-Glo assay. To initiate the reaction, test compound and hGSK-3β (20 ng) were added to each well of a 384-well black plate, followed by the addition of 20 μL of assay buffer containing GSM (hGSK-3β substrate peptide, 25 μM) and ATP (final concentration, 1 μM). […] The reaction mixture was then incubated at 37 °C for 30 min, followed by the addition of the ADP-GloTM reagent (20 μL) to terminate the enzymatic reaction and deplete the remaining ATP. The kinase detection reagent was added to the well plate and glow-type luminescence was recorded using a Synergy H1 microplate reader.
as §2

The target of the next data set is AChE (Homo sapiens, UniProt P22303). To be noted: Dixon and Lineweaver–Burk plots. On the procedure:
The AChE inhibitory activity was measured spectrophotometrically using the modified Ellman method. First, AChE (0.8 U/mL) was added to a mixture containing sodium phosphate buffer (0.1 M; pH 8.0), DTNB (5 mM), and a test sample, followed by incubation at 37 °C for 15 min in 96-well microplates. Next, ACTI (500 µM; substrate for AChE) was added to the mixture to activate the reaction.
as §1

On the set-up of data set [1]: method as in PMID 29925102. Conditions: use of honokiol or herbal formulations containing it; cited from earlier work.
Where [2] appears, read: mean ± S.D. of triplicate experiments, read-out: IC50 hQC.
Where [3] appears, read: mean ± S.D. of triplicate experiments, read-out: IC50 hGSK-3β.
[4] abbreviates: Dixon and Lineweaver–Burk plots.

T2 sequence (Q16769 29-361): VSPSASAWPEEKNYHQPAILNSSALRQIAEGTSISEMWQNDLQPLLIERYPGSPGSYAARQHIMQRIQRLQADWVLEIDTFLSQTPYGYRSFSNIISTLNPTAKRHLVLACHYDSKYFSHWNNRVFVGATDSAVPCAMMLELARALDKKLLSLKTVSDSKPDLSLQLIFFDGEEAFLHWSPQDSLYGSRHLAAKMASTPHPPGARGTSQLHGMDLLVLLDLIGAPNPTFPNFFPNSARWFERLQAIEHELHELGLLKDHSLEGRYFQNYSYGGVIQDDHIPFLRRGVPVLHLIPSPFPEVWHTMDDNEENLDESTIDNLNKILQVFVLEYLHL
T3 sequence (P49841 whole entry): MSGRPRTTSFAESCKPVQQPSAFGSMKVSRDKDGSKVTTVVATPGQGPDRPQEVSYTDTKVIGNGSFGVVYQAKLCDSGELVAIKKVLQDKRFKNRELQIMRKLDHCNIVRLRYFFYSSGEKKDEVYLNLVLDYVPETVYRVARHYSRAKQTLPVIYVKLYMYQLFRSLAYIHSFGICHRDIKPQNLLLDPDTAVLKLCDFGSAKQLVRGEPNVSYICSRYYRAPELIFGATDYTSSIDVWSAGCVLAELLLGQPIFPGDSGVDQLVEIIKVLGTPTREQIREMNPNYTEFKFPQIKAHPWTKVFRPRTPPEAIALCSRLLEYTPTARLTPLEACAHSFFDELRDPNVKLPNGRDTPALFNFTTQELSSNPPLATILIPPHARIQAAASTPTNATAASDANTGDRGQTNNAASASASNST
T1 sequence (P56817 46-501): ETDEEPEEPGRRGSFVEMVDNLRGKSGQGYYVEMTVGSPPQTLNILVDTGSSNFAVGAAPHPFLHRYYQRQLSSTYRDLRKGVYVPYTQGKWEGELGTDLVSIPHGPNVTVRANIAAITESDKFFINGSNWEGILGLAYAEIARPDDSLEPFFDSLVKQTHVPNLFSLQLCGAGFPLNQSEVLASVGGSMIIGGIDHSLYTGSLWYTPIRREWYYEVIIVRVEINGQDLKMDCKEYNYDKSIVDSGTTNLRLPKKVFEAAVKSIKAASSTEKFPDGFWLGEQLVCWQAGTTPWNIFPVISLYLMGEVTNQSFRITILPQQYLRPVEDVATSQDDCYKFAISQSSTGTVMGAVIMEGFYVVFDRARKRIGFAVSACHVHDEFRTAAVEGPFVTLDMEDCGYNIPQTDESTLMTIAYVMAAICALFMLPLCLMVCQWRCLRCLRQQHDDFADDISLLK
Chain of AChE (P22303 32-614): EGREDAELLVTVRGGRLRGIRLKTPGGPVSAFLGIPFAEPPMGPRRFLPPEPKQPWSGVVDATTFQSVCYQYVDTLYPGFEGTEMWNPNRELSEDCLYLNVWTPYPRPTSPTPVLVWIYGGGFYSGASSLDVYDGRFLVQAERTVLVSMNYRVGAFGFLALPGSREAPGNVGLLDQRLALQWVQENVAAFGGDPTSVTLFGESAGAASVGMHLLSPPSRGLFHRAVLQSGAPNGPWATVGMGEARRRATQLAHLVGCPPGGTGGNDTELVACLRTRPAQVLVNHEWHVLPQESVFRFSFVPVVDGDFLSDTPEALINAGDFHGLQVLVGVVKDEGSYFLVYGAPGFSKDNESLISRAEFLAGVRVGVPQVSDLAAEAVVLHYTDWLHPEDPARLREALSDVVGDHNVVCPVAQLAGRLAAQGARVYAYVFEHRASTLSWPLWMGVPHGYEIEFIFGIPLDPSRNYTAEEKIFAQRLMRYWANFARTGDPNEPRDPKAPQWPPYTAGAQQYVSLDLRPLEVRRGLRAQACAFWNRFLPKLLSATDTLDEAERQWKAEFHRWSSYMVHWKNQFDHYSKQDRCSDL
Chain of Aβ1-42 (P05067 672-713 limits assumed): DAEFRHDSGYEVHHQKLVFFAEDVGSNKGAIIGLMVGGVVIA

With `C=CCc1ccc(O)c(-c2cc(CC=C)ccc2O)c1` [Magnolol (51), 5,5′-diallyl-2,2′-dihydroxybiphenyl], at Aβ1-42, the anti-Aβ1-42 aggregation effects entry is recorded as “lower anti-Aβ1-42 aggregation effects than that of honokiol”. Moreover, the IC50 is more than 100 µM at hBACE1 (mean ± S.D. of triplicate experiments, read-out: IC50 hBACE1); more than 100 µM on hQC (setting [2]); more than 100 µM at hGSK-3β (setting [3]).

Turning to `C=CCc1ccc(O)c(-c2ccc(O)c(CC=C)c2)c1` [Honokiol (39), 3,5′-diallyl-4,2′-dihydroxybiphenyl], the IC50 was 20.6 ± 0.8 µM at hBACE1, 90.7 ± 1.07 µM on hQC and 6.7 ± 0.03 µM at hGSK-3β. Also, the inhibition constant (Ki) on hBACE1 is 27.3 µM; at hQC it was 49.4 µM; on hGSK-3β, 9.8 µM. Also, the “Inhibition Mode hBACE1” value on hBACE1 (setting [4]) is on record as “Non-competitive”. Besides, the “Inhibition Mode AChE” value on AChE is recorded as “Non-competitive”. Also, the “side effects in humans” value in data set [1] is listed as “no side effects have been reported in humans”. Further, at hQC (setting [4]), the “Inhibition Mode hQC” value is listed as “Competitive”. Also, the “Inhibition Mode hGSK-3β” value on hGSK-3β (setting [4]) is recorded as “Non-competitive”.

Consider `Oc1ccc(/C=C/c2cc(O)cc(O)c2)cc1` [resveratrol, reference compound], for which, on hQC (setting [2]), the IC50 is 30.9 µM.

`C[C@@H]1O[C@@H](OC[C@H]2O[C@@H](Oc3c(-c4ccc(O)c(O)c4)oc4cc(O)cc(O)c4c3=O)[C@H](O)[C@@H](O)[C@@H]2O)[C@H](O)[C@H](O)[C@H]1O` [rutin, reference compound]: the concentration for half-maximal inhibition (IC50) at hGSK-3β (setting [3]) came out at 10.8 µM.

Broadly, the IC50 is the concentration that inhibits the measured activity by half. The Ki is a dissociation constant, usually derived from enzyme kinetics or from competition with a known ligand.
